According to PubChem BioAssay (NCI):
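Grown in 96-well plates, cells were treated for 48 hours with each compound at five concentrations. Insufficient inhibition: endpoint recorded as highest concentration tested. Definition used: TGI = concentration required for complete inhibition of growth.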

Tests used:
Test in all cases: NCI tumour cell line growth inhibition, 48 h
NCI-H23 lung = tested on: NCI-H23 lung
M19-MEL melanoma = tested on: M19-MEL melanoma
UO-31 renal = tested on: UO-31 renal
SR leukemia = tested on: SR leukemia
EKVX NSCLC = tested on: EKVX NSCLC
SNB-78 CNS = tested on: SNB-78 CNS
SF-539 CNS = tested on: SF-539 CNS
SNB-75 CNS = tested on: SNB-75 CNS
MALME-3M melanoma = tested on: MALME-3M melanoma
NCI-H226 lung = tested on: NCI-H226 lung
DMS 273 small cell lung = tested on: DMS 273 small cell lung
NCI-H460 lung = tested on: NCI-H460 lung
HS 578T breast = tested on: HS 578T breast
NCI/ADR-RES ovarian = tested on: NCI/ADR-RES ovarian
CAKI-1 renal = tested on: CAKI-1 renal
SK-MEL-2 melanoma = tested on: SK-MEL-2 melanoma
ACHN renal = tested on: ACHN renal
MCF7 breast = tested on: MCF7 breast
HOP-92 NSCLC = tested on: HOP-92 NSCLC
BT-549 breast = tested on: BT-549 breast

Measured: TGI

OC12c3ccccc3C1CCCCCCCCCC21OCCCO1 (stereo unspecified)
> 100 µM: NCI-H23 lung | M19-MEL melanoma | UO-31 renal | SR leukemia | EKVX NSCLC | SNB-78 CNS | SF-539 CNS | SNB-75 CNS | MALME-3M melanoma | NCI-H226 lung | DMS 273 small cell lung

CCOC(=O)c1csc(NC(=O)CN2CCCCC2)n1
not listed: M19-MEL melanoma | SR leukemia | SNB-78 CNS | MALME-3M melanoma | NCI-H226 lung | DMS 273 small cell lung | BT-549 breast
> 100 µM: all other assays above

COc1cccc(N2C(=O)CSC2c2c[nH]c3ccccc23)c1 (stereo unspecified)
> 100 µM: NCI-H460 lung | NCI-H23 lung | UO-31 renal | SR leukemia | EKVX NSCLC | SNB-75 CNS | MCF7 breast | HOP-92 NSCLC | BT-549 breast

O=S(=O)(O)c1cccc2ccc(O)c(N=Nc3ccc(S(=O)(=O)c4ccc(N=Nc5c(O)ccc6cccc(S(=O)(=O)O)c56)cc4)cc3)c12
not listed: M19-MEL melanoma | SR leukemia | SNB-78 CNS | SF-539 CNS | DMS 273 small cell lung | NCI-H460 lung | MCF7 breast
> 100 µM: all other assays above
